Data as given in PMC12296705, “In Vivo and Bioinformatics Evaluation of Nine Traditional Chinese Medicine Compounds Targeting Acetylcholinesterase and Butyrylcholinesterase Enzymes in Alzheimer’s Disease” (Iranian Journal of Pharmaceutical Research : IJPR, 2025).
Like-named read-outs stand apart in the source and are kept apart here.

What was measured:
[1] = system: lead acetate-induced AD (LA-AD) rats; assay: Glutathione (GSH) content in brain tissue of LA-AD rats; format: in vivo, rat; conditions: 1 mg/kg IP for 15 days, compared to the LA-AD group
Description: Fifty male Wistar rats (n = 50) were obtained from a certified animal facility, Shenzhen Bay Laboratory (SZBL) Laboratory Animal Platform, China. The rats were acclimatized to the laboratory environment for one week prior to the experiment. During this period, they were kept in standard polypropylene cages for rodents under controlled conditions, with a room temperature of 22°C, relative humidity of 50%, and a 12-hour light-dark cycle, with lights on from 06:00 to 18:00. […] Routine monitoring of housing conditions was conducted to ensure compliance with ethical standards. To establish an AD model, the rats underwent intraperitoneal (IP) administration with lead acetate-induced AD (LA-AD, 50 mg/kg) for 15 days to mimic the neurodegenerative features of AD.
A 12-hour fasting period was imposed on the rats immediately after the final dose of treatment to minimize the effect of recent food intake on blood parameters. […] Following 28 days of exposure, the rats were euthanized by cervical decapitation, and their brains were removed to minimize tissue damage. The brains were dissected into specific regions, including the cerebellum and cerebral cortex, for deeper analysis. […]
Glutathione (GSH) levels in cerebral tissue were quantified by extracting proteins from the homogenate. […]

[2] = target: T1, butyrylcholinesterase (BuChE) (Rattus norvegicus, UniProt Q9JKC1); assay: BuChE levels in LA-AD rats; format: in vivo; conditions: 1 mg/kg IP for 15 days
T1 construct: The tissues were then homogenized, processed for biochemical analysis; from tissue; host or cells: brain of male Wistar rats (cerebellum, cerebral cortex, hippocampus homogenates)
T1 sequence (Q9JKC1 24-597): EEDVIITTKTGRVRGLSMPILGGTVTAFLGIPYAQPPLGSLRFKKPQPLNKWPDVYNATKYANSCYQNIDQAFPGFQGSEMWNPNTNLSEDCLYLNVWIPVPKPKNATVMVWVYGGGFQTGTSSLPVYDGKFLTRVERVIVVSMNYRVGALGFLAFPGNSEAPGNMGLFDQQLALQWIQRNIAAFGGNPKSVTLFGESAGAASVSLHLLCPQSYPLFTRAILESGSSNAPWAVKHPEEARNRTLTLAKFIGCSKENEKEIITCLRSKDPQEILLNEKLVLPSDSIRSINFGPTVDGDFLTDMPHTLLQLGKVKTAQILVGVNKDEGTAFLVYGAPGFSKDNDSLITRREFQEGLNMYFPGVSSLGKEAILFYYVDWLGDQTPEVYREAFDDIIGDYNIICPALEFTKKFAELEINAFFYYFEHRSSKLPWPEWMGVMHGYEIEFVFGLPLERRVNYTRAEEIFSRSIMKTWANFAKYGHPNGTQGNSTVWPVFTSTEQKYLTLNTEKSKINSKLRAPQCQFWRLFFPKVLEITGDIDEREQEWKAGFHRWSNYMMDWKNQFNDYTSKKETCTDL
Description: (§1) Fifty male Wistar rats (n = 50) were obtained from a certified animal facility, Shenzhen Bay Laboratory (SZBL) Laboratory Animal Platform, China. The rats were acclimatized to the laboratory environment for one week prior to the experiment. During this period, they were kept in standard polypropylene cages for rodents under controlled conditions, with a room temperature of 22°C, relative humidity of 50%, and a 12-hour light-dark cycle, with lights on from 06:00 to 18:00. The rats had ad libitum access to a standard rodent diet and filtered water to ensure optimal health and hydration. Routine monitoring of housing conditions was conducted to ensure compliance with ethical standards. To establish an AD model, the rats underwent intraperitoneal (IP) administration with lead acetate-induced AD (LA-AD, 50 mg/kg) for 15 days to mimic the neurodegenerative features of AD.
Following AD induction, the rats were randomly divided into five groups: (1) Group I (control): DMSO contained in drinking water at a 5% concentration, without neurotoxic effects, in normal rats; (2) group II (LA-AD): The LA-AD rats for 15 days; […]. […]
(§2) A 12-hour fasting period was imposed on the rats immediately after the final dose of treatment to minimize the effect of recent food intake on blood parameters. […] The toxicological effects of the treatment were assessed through analysis of blood lead concentrations. […]

[3] = target: T2, butyrylcholinesterase (BuChE) (Homo sapiens, UniProt P06276); assay: biochemical
T2 construct: purchased MyBiosource, CA, and USA MBS846801
T2 sequence (P06276 29-602): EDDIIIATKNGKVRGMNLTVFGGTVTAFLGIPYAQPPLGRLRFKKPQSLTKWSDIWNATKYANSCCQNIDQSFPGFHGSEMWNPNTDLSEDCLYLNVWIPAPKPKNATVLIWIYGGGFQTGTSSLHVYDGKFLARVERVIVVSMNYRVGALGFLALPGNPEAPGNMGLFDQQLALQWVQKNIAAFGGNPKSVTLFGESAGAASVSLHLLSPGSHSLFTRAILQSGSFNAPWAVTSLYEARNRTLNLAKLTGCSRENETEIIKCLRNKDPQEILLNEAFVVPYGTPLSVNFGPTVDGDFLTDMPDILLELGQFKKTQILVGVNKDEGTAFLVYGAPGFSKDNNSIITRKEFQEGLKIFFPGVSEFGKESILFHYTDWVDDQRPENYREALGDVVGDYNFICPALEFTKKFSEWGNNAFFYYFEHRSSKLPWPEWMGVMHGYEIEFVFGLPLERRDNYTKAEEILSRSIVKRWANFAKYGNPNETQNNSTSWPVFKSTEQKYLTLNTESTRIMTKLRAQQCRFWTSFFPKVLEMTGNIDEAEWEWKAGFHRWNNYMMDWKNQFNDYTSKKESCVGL
Description: (§3) The in vitro AChE and BuChE inhibitory effects and selectivity of nine TCM compounds were evaluated using the QuantiChrom^TM AChE inhibitor screening kit (IACE-100, bioassay systems, USA) for AChE inhibition and the BuChE activity kit (catalog # MBS846801, MyBiosource, CA, USA) for BuChE inhibition. […] The QuantiChrom^TM kit was used to assess the activity of AChE and BuChE by recording enzymatic activity at different concentrations of the test compounds and comparing it to activity without inhibitors, followed by plotting dose-response curves. The experimental data were fitted by nonlinear regression analysis to yield IC50 values. The selectivity of the compounds for AChE relative to BuChE was determined by calculating the Selectivity Index (SI) using the formula BuChE IC50 values are divided by AChE IC50 values to obtain SI.

[4] = target: T3, acetylcholinesterase (AChE) (Homo sapiens, UniProt P22303); assay: biochemical; conditions: for IC50: mean ± SD, n = 3, each in triplicate
T3 construct: purchased bioassay systems, USA IACE-100
T3 sequence (P22303 32-614): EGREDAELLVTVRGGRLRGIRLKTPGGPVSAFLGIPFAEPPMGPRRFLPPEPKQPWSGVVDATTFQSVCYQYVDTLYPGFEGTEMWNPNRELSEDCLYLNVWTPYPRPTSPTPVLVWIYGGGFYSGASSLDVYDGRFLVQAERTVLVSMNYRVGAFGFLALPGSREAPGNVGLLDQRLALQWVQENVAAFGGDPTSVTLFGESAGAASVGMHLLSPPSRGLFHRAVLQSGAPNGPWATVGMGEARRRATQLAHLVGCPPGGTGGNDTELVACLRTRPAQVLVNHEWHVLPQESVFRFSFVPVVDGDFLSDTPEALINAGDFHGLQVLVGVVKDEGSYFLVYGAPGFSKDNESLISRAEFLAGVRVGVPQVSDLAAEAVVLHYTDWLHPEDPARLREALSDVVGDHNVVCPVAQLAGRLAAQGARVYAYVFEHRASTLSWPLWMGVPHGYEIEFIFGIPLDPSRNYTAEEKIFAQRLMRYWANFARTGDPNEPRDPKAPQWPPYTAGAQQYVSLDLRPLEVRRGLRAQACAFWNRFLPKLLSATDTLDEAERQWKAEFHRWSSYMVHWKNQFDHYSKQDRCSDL
Description: as §3

[5] = system: lead acetate-induced AD (LA-AD) rats; assay: Lipid peroxidation (MDA) in brain tissue of LA-AD rats; format: in vivo, rat; conditions: 1 mg/kg IP for 15 days, compared to the LA-AD group
Description: The rats were acclimatized to the laboratory environment for one week prior to the experiment. During this period, they were kept in standard polypropylene cages for rodents under controlled conditions, with a room temperature of 22°C, relative humidity of 50%, and a 12-hour light-dark cycle, with lights on from 06:00 to 18:00. […] Routine monitoring of housing conditions was conducted to ensure compliance with ethical standards. To establish an AD model, the rats underwent intraperitoneal (IP) administration with lead acetate-induced AD (LA-AD, 50 mg/kg) for 15 days to mimic the neurodegenerative features of AD.
Following 28 days of exposure, the rats were euthanized by cervical decapitation, and their brains were removed to minimize tissue damage. The brains were dissected into specific regions, including the cerebellum and cerebral cortex, for deeper analysis. The cerebellum, cerebral cortex, and hippocampus were isolated in sodium chloride solution and washed with ice-cold solution. The tissues were then homogenized, processed for biochemical analysis, and submerged in ice-cold 0.1 M phosphate buffer. […]
The reaction mixtures were then transferred into centrifuge tubes and centrifuged at 3800 × g for 25 minutes. […] After cooling, the absorbance of the samples was measured at 530 nm using a spectrophotometer (BIOBASE BK-UV1800PC, China).

[6] = target: T4, Acetylcholinesterase (AChE) (Rattus norvegicus, UniProt P37136); assay: AChE levels in LA-AD rats; format: in vivo; conditions: 1 mg/kg IP for 15 days
T4 construct: The tissues were then homogenized, processed for biochemical analysis; from tissue; host or cells: brain of male Wistar rats (cerebellum, cerebral cortex, hippocampus homogenates)
T4 sequence (P37136 32-614): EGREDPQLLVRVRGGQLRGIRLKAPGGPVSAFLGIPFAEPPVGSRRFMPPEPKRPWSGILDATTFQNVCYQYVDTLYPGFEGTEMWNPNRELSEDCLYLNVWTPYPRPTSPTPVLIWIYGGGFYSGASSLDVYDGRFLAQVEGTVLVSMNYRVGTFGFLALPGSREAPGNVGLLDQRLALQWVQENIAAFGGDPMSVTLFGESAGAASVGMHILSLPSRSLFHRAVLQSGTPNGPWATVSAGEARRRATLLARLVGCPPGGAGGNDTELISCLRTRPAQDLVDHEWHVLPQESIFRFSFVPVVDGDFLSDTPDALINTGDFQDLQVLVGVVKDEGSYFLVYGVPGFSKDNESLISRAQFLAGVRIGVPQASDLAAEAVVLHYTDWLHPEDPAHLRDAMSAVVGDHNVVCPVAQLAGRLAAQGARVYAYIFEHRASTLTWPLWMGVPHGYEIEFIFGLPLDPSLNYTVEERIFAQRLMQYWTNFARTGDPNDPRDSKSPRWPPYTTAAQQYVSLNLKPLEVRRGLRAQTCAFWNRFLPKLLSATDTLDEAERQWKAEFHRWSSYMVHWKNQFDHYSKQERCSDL
Description: as §1
Following AD induction, the rats were randomly divided into five groups: (1) Group I (control): DMSO contained in drinking water at a 5% concentration, without neurotoxic effects, in normal rats; (2) group II (LA-AD): The LA-AD rats for 15 days; […]. […]. […]
as §2

[7] = mean ± SD, n = 3, each in triplicate, read-out: IC50 BuChE
[8] = BuChE IC50 divided by AChE IC50

Compound	IC50 [3, 7] [nM]	IC50 [4] [nM]	IC50 [3] [nM]	other results
O=c1cc(-c2ccccc2)oc2c(O)c(O)cc(O)c12 [Norwogonin]	15.2	33.6		Glutathione (GSH) levels [1]: significantly increased; BuChE activity [2]: significantly decreased; Malondialdehyde (MDA) levels [5]: significantly reduced; AChE activity [6]: significantly decreased
Asiaticoside				BuChE/AChE Selectivity [4, 8]: 1.17
COc1cc2c(c(OC)c1OC)-c1c(cc3c(c1OC)OCO3)CC(C)C(C)C2 (stereo not shown) [Schisandrin B]		90.4 ± 4.41	82.3 ± 1.21	
CC1(C)C=Cc2c(cc3occ(-c4ccc(O)cc4)c(=O)c3c2O)O1 [Alpinumisoflavone]	29.2 ± 1.4	90.3 ± 4.13		BuChE/AChE Selectivity [4, 8]: 0.32
COC(=O)C1=CO[C@@H](O[C@@H]2O[C@H](CO)[C@@H](O)[C@H](O)[C@H]2O)[C@@H]2[C@H](C)O[C@@H](O)C[C@H]12 [Morroniside]	18.2 ± 2.12	41.6 ± 2.02		
COc1cc2c3c(c1O)-c1c(ccc(OC)c1OC)C[C@@H]3NCC2 [Norcorydine]		87.2 ± 4.12	102 ± 3.13	
Cc1cc(=O)cc2c3c1CC1C4OC(=O)C(CC2)(C(C)C4O)C31 (stereo not shown) [Hainanolidol]	12.3	44.3		Glutathione (GSH) levels [1]: significantly increased; BuChE activity [2]: significantly decreased; Malondialdehyde (MDA) levels [5]: significantly reduced; AChE activity [6]: significantly decreased
C=C1CCC[C@]2(C)C[C@]3(O)OC(=O)C(C)=C3C[C@@H]12 [Atractylenolide III]		83.1 ± 2.43	31.3 ± 2.62	BuChE/AChE Selectivity [4]: 0.38
